{
  "source": "patent US8338423B2",
  "about": "“Compositions for the treatment of hyperphenylalaninemia” (Universidad de Zaragoza, priority 2007, dated 2012)",
  "key": {"wt-PAH": {"biological_target": "T1, wt-PAH (Homo sapiens, UniProt P00439)", "T1 construct": "made in house; host or cells: E. coli", "T1 sequence (P00439 1-452)": "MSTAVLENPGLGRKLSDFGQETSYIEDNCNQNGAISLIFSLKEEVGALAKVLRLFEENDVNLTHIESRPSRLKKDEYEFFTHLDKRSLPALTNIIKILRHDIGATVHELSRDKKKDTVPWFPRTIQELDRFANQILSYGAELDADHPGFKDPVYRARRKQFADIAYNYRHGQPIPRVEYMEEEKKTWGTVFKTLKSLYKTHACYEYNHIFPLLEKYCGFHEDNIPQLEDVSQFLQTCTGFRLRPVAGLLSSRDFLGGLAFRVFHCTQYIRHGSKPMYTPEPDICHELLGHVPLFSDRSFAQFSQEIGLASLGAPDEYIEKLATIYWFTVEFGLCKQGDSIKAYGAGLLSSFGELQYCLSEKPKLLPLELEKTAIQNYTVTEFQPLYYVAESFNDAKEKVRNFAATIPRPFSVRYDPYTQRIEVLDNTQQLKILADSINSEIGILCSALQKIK", "assay": "ANS-monitored thermal unfolding of wt-PAH", "type": "binding", "details": "for ΔT0.5 PAHwt / T0.5 PAHwt (half denaturation temperature): 100 μM compound; for ΔT0.5 PAHwt: vs no ligand; for T0.5 PAHwt (half denaturation temperature): mean ± SD; for stabilizing effect on wt-PAH: 25 μM compound (FIG. 2)", "experimental": "(§1) HTS for ligand-induced PAH stabilization was performed by monitoring the thermal denaturation of recombinant pure PAH protein in the presence of the extrinsic fluorescent probe 8-anilino 1-naphtalene sulfonic acid (ANS; Aldrich). HTS experiments were performed in a FluoDia T70 High Temperature Fluorescence Microplate Reader (Photon Technology International). Protein-ligand solutions (200 uL) were dispensed into 96-well microplates (ThermoFast®96 Skirted from Abgene) and overlayed with mineral oil. Protein solutions contained 0.1 mg/ml PAH (2 μM in PAH subunit) in 20 mM Hepes 200 mM NaCl pH 7.0 and 100 μM ANS. Ligands were added in DMSO, at 100 μM and 2.5% final concentration, respectively. Control experiments in the absence of DMSO and/or ligands were routinely performed in each microplate. Ligands (from MayBridge HitFinder™ Collection Database) were manually added to the microplates containing the protein solutions and incubated at 25° C. for 30 min before loading them onto the microplate reader. Thermal denaturation was monitored by following the increase in ANS fluorescence intensity due to protein unfolding λexc=395 and λern=500 nm; filters (Matulis D, et. Al., Biochemistry 2005, 44(13):5258-66). Fluorescence was registered in the 25-75° C. range, at a 1° C./min scan rate and allowing the system to equilibrate at each temperature for 1 min before fluorescence acquisition The experiments were real-time monitored using the software provided by the manufacturer. After smoothing and normalization of the experimental data, ligand induced stabilization was screened by estimation of the T0.5 as midpoint temperature of the transition defined as the temperature where half of the unfolded fluorescence signal (fu) is experimentally observed, using a home-built software written in C++ and the following expression (equation 1): […]\n(§2) Additional thermal denaturation experiments were performed on a Cary Eclipse fluorescence spectrophotometer equipped with a temperature controlled Peltier multicell holder (Varian). Samples containing PAH (2 μM subunit) in 20 mM NaHepes, 200 mM NaCl, pH 7.0, 100 μM ANS, 2.5% DMSO and 0-100 μM ligands were incubated at room temperature for 30 min to allow equilibration prior to measurements. Thermal denaturation was monitored by following changes in ANS fluorescence emission (excitation at 395 and emission at 500 nm; slits 10 nm) at a 1 K/min in a 20-80° C. range. Each run contained 4 different samples, including a control in the absence of ligand. Data analysis was performed by fitting of the experimental fluorescence to equation 1."}, "[1]": {"biological_target": "T2, PAH103-428 (catalytic domain) (Homo sapiens, UniProt P00439)", "T2 construct": "made in house; host or cells: E. coli", "T2 sequence (P00439 103-428)": "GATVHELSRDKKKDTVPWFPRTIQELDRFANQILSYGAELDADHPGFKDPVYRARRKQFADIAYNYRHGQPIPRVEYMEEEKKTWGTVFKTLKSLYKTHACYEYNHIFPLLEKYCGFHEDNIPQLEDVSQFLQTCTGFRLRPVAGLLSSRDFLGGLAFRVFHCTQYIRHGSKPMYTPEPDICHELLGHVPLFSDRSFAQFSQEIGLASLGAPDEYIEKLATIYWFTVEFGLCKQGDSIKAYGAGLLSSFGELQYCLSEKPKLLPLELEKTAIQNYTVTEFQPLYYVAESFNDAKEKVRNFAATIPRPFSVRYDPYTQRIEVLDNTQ", "assay": "ANS-monitored thermal unfolding of PAH103-428", "type": "binding", "details": "for ΔT0.5 PAH103-428 / T0.5 PAH103-428: 100 μM compound; for ΔT0.5 PAH103-428: vs no ligand; for T0.5 PAH103-428: mean ± SD; for stabilization of PAH103-428: 100 μM ligand", "experimental": "as §1, §2\nSimilar ligand-induced stabilization experiments were performed using i) a double truncated form of PAH equivalent to the catalytic domain (PAH103-428) lacking both the regulatory N-terminal domain and the tetramerization motif and existing as a functional dimmer and ii) the R68S-PAH mutant, associated to mild PKU and one of the few PKU mutants that display enough stability to be purified as a stable tetramer."}},
  "data": [
    {"smiles": "Cc1onc(-c2ccccc2)c1-c1n[nH]c(N)c1C#N", "note": "[Compound 5, 5-amino-3-(5-methyl-3-phenyl-4-isoxazolyl)-1H-pyrazole-4-carbonitrile]", "values": [
      {"measurement": "ΔT0.5 PAHwt", "setting": "wt-PAH", "value": 2.6, "unit": "°C"},
      {"measurement": "T0.5 PAHwt (half denaturation temperature)", "setting": "wt-PAH", "value": "52.1 ± 0.9", "unit": "°C"},
      {"measurement": "ΔT0.5 PAH103-428", "setting": "[1]", "value": 4.3, "unit": "°C"},
      {"measurement": "T0.5 PAH103-428", "setting": "[1]", "value": "49.2 ± 1.2", "unit": "°C"}
    ]},
    {"smiles": "Cn1cnc([N+](=O)[O-])c1N1CCN(C(c2ccccc2)c2ccccc2)CC1", "note": "[Compound 6, 1-benzhydryl-4-(1-methyl-4-nitro-1H-imidazol-5-yl)piperazine]", "values": [
      {"measurement": "ΔT0.5 PAHwt", "setting": "wt-PAH", "value": 2.7, "unit": "°C"},
      {"measurement": "T0.5 PAHwt (half denaturation temperature)", "setting": "wt-PAH", "value": "52.2 ± 1.3", "unit": "°C"},
      {"measurement": "ΔT0.5 PAH103-428", "setting": "[1]", "value": 8.4, "unit": "°C"},
      {"measurement": "T0.5 PAH103-428", "setting": "[1]", "value": "53.3 ± 1.5", "unit": "°C"},
      {"measurement": "stabilization of PAH103-428", "setting": "[1]", "value": "significantly stabilized"}
    ]},
    {"smiles": "Nc1c(-c2ccc3ccccc3n2)c2ccc([N+](=O)[O-])cc2c(=O)n1Cc1ccccc1", "note": "[Compound 11, 3-amino-2-benzyl-7-nitro-4-(2-quinolyl)-1,2-dihydroisoquinolin-1-one]", "values": [
      {"measurement": "stabilizing effect on wt-PAH", "setting": "wt-PAH", "value": "significant"},
      {"measurement": "ΔT0.5 PAHwt", "setting": "wt-PAH", "value": 13.6, "unit": "°C"},
      {"measurement": "T0.5 PAHwt (half denaturation temperature)", "setting": "wt-PAH", "value": "63.1 ± 2.9", "unit": "°C"},
      {"measurement": "ΔT0.5 PAH103-428", "setting": "[1]", "value": 10.1, "unit": "°C"},
      {"measurement": "T0.5 PAH103-428", "setting": "[1]", "value": "55.0 ± 1.3", "unit": "°C"},
      {"measurement": "stabilization of PAH103-428", "setting": "[1]", "value": "significantly stabilized"}
    ]},
    {"smiles": "Cc1ccnc(-n2c(=S)[nH]c3sc(C)c(C)c3c2=O)c1", "note": "[Compound 13, 5,6-dimethyl-3-(4-methyl-2-pyridinyl)-2-thioxo-2,3 dihydrothieno[2,3-d]pyrimidin-4(1H)-one]", "values": [
      {"measurement": "stabilizing effect on wt-PAH", "setting": "wt-PAH", "value": "significant"},
      {"measurement": "ΔT0.5 PAHwt", "setting": "wt-PAH", "value": 7.2, "unit": "°C"},
      {"measurement": "T0.5 PAHwt (half denaturation temperature)", "setting": "wt-PAH", "value": "56.7 ± 1.5", "unit": "°C"},
      {"measurement": "ΔT0.5 PAH103-428", "setting": "[1]", "value": 1.2, "unit": "°C"},
      {"measurement": "T0.5 PAH103-428", "setting": "[1]", "value": "46.1 ± 0.7", "unit": "°C"},
      {"measurement": "stabilization of PAH103-428", "setting": "[1]", "value": "only a slight stabilized"}
    ]}
  ]
}
